Results from ChEMBL document CHEMBL4507266, “Data for DCP probe BAY-784” (2021).

What was measured:
[1] = biological target: Cytoplasmic tyrosine-protein kinase BMX (Homo sapiens) (UniProt P51813); conditions: Compound concentration 1000.0 nM
[2] = biological target: Serine/threonine-protein kinase Chk2 (Homo sapiens) (UniProt O96017); conditions: Compound concentration 1000.0 nM
[3] = biological target: Casein kinase I isoform epsilon (Homo sapiens) (UniProt P49674); conditions: Compound concentration 1000.0 nM
[4] = biological target: Serine/threonine-protein kinase DCLK3 (Homo sapiens) (UniProt Q9C098); conditions: Compound concentration 1000.0 nM
[5] = biological target: Ephrin type-A receptor 6 (Homo sapiens) (UniProt Q9UF33); conditions: Compound concentration 1000.0 nM
[6] = biological target: Ephrin type-B receptor 3 (Homo sapiens) (UniProt P54753); conditions: Compound concentration 1000.0 nM
[7] = biological target: Mitogen-activated protein kinase 7 (Homo sapiens) (UniProt Q13164); conditions: Compound concentration 1000.0 nM
[8] = biological target: Tyrosine-protein kinase Fes/Fps (Homo sapiens) (UniProt P07332); conditions: Compound concentration 1000.0 nM
[9] = biological target: Fibroblast growth factor receptor 4 (Homo sapiens) (UniProt P22455); conditions: Compound concentration 1000.0 nM
[10] = biological target: G protein-coupled receptor kinase 4 (Homo sapiens) (UniProt P32298); conditions: Compound concentration 1000.0 nM
Sequence of G protein-coupled receptor kinase 4 (Homo sapiens) (P32298 whole entry, looked up): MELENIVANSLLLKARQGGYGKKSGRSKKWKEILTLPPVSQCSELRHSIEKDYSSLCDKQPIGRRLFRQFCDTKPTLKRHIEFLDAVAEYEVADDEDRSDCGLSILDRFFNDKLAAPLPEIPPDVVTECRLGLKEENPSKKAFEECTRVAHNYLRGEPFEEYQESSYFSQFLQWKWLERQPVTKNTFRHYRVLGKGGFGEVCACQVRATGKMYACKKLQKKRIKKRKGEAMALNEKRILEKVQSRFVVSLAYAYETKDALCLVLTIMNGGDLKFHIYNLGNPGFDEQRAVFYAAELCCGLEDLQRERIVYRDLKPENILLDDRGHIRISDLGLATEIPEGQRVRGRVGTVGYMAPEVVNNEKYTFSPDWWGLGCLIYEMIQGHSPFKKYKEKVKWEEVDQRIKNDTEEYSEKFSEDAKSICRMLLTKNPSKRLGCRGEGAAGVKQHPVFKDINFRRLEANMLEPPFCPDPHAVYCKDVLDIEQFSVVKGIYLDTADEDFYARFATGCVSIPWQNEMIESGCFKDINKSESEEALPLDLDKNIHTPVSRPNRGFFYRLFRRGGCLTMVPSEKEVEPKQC

[11] = biological target: Rhodopsin kinase GRK7 (Homo sapiens) (UniProt Q8WTQ7); conditions: Compound concentration 1000.0 nM
[12] = biological target: Insulin receptor (Homo sapiens) (UniProt P06213); conditions: Compound concentration 1000.0 nM
[13] = biological target: Tyrosine-protein kinase JAK2 (Homo sapiens) (UniProt O60674); conditions: Compound concentration 1000.0 nM
Sequence of Tyrosine-protein kinase JAK2 (Homo sapiens) (O60674 whole entry): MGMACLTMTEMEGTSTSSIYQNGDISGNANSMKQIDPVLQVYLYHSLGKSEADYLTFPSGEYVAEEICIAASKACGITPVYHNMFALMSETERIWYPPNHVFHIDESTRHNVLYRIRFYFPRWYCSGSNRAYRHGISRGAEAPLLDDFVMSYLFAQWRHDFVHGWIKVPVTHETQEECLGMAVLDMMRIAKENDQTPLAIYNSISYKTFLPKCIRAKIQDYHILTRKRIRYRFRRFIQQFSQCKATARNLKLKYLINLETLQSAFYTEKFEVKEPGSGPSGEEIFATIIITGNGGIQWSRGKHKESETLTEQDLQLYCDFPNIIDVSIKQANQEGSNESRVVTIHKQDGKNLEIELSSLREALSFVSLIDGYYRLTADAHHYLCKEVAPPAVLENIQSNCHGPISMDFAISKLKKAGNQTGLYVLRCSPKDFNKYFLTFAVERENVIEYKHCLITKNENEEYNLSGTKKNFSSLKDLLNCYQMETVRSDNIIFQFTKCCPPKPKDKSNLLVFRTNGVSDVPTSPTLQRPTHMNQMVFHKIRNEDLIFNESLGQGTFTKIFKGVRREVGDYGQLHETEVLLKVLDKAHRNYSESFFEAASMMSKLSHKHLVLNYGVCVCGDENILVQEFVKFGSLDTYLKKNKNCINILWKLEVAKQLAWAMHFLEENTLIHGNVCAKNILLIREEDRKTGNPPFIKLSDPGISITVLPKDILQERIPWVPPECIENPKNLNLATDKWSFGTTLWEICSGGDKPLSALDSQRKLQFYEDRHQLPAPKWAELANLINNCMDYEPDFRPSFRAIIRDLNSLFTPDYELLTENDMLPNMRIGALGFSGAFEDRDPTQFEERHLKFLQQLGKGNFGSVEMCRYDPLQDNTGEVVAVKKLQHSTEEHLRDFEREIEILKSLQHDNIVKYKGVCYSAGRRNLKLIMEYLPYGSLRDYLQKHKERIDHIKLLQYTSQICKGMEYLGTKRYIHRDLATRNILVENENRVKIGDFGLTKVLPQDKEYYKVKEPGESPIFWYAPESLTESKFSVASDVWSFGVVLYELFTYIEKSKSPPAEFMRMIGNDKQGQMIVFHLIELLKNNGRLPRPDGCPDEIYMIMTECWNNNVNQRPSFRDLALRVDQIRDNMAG

[14] = biological target: Serine/threonine-protein kinase MAK (Homo sapiens) (UniProt P20794); conditions: Compound concentration 1000.0 nM
[15] = biological target: Mitogen-activated protein kinase kinase kinase 15 (Homo sapiens) (UniProt Q6ZN16); conditions: Compound concentration 1000.0 nM
[16] = biological target: Mitogen-activated protein kinase kinase kinase 2 (Homo sapiens) (UniProt Q9Y2U5); conditions: Compound concentration 1000.0 nM
[17] = biological target: Dual specificity mitogen-activated protein kinase kinase 4 (Homo sapiens) (UniProt P45985); conditions: Compound concentration 1000.0 nM
[18] = biological target: Mitogen-activated protein kinase kinase kinase 11 (Homo sapiens) (UniProt Q16584); conditions: Compound concentration 1000.0 nM
Sequence of Mitogen-activated protein kinase kinase kinase 11 (Homo sapiens) (Q16584 whole entry, looked up): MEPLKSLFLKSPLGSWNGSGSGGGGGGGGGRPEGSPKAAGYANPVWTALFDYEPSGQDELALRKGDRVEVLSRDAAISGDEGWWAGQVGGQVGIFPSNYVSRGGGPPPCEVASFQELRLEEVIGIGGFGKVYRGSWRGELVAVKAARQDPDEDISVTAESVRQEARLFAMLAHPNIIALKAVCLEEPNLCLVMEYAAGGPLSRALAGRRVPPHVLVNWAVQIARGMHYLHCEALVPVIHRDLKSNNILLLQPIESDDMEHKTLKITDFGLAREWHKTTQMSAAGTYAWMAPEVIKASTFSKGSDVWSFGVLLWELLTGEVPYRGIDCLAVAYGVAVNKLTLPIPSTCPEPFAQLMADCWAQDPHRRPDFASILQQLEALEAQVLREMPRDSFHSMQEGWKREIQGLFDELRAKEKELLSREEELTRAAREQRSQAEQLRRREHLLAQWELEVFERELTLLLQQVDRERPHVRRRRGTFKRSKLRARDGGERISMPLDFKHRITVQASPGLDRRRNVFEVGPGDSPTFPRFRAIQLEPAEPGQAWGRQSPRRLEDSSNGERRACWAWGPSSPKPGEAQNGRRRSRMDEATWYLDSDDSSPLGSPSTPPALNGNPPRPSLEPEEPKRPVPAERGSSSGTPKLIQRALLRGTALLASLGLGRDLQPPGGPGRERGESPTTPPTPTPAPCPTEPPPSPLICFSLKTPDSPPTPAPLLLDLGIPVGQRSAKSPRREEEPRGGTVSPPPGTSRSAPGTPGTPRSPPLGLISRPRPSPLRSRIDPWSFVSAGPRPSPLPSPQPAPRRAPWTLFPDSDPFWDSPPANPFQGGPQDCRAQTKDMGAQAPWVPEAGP

[19] = biological target: Serine/threonine-protein kinase Nek5 (Homo sapiens) (UniProt Q6P3R8); conditions: Compound concentration 1000.0 nM
[20] = biological target: Mitogen-activated protein kinase 11 (Homo sapiens) (UniProt Q15759); conditions: Compound concentration 1000.0 nM
[21] = biological target: Serine/threonine-protein kinase PAK 4 (Homo sapiens) (UniProt O96013); conditions: Compound concentration 1000.0 nM
[22] = biological target: Cyclin-dependent kinase 18 (Homo sapiens) (UniProt Q07002); conditions: Compound concentration 1000.0 nM
[23] = biological target: Phosphorylase b kinase gamma catalytic chain, skeletal muscle/heart isoform (Homo sapiens) (UniProt Q16816); conditions: Compound concentration 1000.0 nM
Sequence of Phosphorylase b kinase gamma catalytic chain, skeletal muscle/heart isoform (Homo sapiens) (Q16816 whole entry, looked up, canonical isoform): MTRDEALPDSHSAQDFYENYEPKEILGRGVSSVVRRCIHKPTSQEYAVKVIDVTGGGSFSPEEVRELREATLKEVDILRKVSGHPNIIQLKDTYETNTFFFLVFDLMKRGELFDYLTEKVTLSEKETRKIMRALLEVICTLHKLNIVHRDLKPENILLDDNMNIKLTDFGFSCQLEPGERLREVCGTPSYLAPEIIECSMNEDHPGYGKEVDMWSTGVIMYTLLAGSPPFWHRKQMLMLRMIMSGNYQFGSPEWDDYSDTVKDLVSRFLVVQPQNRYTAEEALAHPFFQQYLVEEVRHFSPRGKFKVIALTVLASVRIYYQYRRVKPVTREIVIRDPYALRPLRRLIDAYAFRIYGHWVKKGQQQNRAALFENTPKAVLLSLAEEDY

[24] = biological target: cAMP-dependent protein kinase catalytic subunit alpha (Homo sapiens) (UniProt P17612); conditions: Compound concentration 1000.0 nM
[25] = biological target: Serine/threonine-protein kinase SIK3 (Homo sapiens) (UniProt Q9Y2K2); conditions: Compound concentration 1000.0 nM
[26] = system: Proto-oncogene tyrosine-protein kinase receptor Ret (Homo sapiens), P07949 [M918T]; conditions: Compound concentration 1000.0 nM
[27] = biological target: NUAK family SNF1-like kinase 2 (Homo sapiens) (UniProt Q9H093); conditions: Compound concentration 1000.0 nM
[28] = biological target: SNF-related serine/threonine-protein kinase (Homo sapiens) (UniProt Q9NRH2); conditions: Compound concentration 1000.0 nM
Sequence of SNF-related serine/threonine-protein kinase (Homo sapiens) (Q9NRH2 whole entry): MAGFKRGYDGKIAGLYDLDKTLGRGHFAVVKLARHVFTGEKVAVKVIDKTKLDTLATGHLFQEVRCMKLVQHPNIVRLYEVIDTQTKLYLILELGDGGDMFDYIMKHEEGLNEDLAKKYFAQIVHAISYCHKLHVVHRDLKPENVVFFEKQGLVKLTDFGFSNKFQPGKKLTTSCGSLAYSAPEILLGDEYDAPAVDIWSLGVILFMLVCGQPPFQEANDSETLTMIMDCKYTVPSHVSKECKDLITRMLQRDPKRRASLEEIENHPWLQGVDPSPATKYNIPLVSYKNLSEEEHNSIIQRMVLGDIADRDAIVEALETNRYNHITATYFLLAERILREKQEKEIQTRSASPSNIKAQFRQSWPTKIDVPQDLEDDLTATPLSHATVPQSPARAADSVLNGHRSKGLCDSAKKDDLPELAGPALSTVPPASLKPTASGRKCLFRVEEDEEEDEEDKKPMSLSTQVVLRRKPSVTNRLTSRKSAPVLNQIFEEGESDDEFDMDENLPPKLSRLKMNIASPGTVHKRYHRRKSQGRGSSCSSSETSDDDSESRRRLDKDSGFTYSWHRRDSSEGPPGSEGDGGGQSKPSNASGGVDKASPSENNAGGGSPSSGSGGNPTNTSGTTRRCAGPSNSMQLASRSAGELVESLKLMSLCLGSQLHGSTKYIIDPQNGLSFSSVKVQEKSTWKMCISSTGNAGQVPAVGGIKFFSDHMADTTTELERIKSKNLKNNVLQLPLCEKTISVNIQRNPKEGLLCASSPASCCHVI

[29] = biological target: SRSF protein kinase 1 (Homo sapiens) (UniProt Q96SB4); conditions: Compound concentration 1000.0 nM
Sequence of SRSF protein kinase 1 (Homo sapiens) (Q96SB4 whole entry): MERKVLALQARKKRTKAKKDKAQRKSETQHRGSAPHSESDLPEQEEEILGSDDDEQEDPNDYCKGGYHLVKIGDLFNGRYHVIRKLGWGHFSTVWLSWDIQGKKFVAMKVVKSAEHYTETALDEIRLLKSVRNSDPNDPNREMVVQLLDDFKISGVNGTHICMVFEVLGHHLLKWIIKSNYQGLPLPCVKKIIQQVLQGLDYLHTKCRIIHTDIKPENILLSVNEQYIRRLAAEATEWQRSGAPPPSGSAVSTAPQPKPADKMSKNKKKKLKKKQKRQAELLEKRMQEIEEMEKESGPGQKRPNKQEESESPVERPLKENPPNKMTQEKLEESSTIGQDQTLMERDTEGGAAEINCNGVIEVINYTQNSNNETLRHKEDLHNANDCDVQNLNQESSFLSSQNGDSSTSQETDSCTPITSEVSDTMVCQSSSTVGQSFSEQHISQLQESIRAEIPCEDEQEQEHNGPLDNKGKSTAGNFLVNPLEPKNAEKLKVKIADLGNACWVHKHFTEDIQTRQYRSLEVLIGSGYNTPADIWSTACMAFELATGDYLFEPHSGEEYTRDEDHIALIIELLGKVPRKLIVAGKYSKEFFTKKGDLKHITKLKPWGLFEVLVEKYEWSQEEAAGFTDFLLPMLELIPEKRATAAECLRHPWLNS

[30] = biological target: BDNF/NT-3 growth factors receptor (Homo sapiens) (UniProt Q16620); conditions: Compound concentration 1000.0 nM
[31] = biological target: Tyrosine-protein kinase TXK (Homo sapiens) (UniProt P42681); conditions: Compound concentration 1000.0 nM
Sequence of Tyrosine-protein kinase TXK (Homo sapiens) (P42681 whole entry): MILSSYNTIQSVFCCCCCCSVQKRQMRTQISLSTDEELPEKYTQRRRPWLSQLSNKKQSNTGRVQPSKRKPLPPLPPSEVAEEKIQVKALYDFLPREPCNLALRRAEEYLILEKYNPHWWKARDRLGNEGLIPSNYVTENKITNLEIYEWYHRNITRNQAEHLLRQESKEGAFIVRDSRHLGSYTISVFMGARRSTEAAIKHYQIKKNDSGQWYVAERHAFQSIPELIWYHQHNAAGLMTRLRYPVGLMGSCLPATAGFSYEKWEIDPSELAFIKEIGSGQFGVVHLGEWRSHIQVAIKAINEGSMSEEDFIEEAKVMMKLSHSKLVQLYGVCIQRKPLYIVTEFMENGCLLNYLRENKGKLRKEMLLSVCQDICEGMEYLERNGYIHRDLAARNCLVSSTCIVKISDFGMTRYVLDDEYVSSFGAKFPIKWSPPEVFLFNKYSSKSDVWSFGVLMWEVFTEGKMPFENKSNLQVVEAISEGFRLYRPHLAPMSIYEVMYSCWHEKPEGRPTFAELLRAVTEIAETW

[32] = biological target: T1, 5-hydroxytryptamine receptor 3A (Homo sapiens) (UniProt P46098); conditions: Compound concentration 10.0 uM
T1 sequence (whole entry): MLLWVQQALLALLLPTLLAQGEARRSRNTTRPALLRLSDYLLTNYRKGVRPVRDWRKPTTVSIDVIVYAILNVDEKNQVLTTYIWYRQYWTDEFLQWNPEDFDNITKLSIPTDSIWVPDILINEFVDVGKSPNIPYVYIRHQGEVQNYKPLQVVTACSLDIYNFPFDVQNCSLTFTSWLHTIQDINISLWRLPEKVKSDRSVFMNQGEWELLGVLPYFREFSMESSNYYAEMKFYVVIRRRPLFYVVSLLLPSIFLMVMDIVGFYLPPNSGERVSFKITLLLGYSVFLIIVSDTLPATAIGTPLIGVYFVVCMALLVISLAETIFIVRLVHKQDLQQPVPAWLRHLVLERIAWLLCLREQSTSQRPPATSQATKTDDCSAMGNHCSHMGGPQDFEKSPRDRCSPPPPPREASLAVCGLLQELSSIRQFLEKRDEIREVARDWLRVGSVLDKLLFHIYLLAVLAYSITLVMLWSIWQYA

[33] = biological target: T2, Alpha-2A adrenergic receptor (Homo sapiens) (UniProt P08913); conditions: Compound concentration 10.0 uM
T2 sequence (whole entry): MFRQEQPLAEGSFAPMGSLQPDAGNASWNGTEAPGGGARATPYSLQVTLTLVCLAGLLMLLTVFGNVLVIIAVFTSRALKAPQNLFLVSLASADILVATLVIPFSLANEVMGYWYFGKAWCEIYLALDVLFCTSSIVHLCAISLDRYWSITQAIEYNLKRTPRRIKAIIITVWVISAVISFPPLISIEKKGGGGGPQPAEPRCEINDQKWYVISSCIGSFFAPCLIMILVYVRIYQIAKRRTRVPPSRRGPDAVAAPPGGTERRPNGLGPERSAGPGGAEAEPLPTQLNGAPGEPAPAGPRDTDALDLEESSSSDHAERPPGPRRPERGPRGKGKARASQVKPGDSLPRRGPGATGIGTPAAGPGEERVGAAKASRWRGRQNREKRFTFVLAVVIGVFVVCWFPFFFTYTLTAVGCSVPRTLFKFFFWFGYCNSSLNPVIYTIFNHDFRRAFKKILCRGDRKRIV

O=C(NCc1ncc(C(F)(F)F)cc1Cl)c1ccc2c(c1)C1(CCS(=O)(=O)CC1)[C@@H](C1CC1)N2S(=O)(=O)c1ccc(F)cc1 [BAY-786]
inactive: residual activity [1] 92% | residual activity [2] 97% | residual activity [3] 100% | residual activity [4] 69% | residual activity [5] 100% | residual activity [6] 100% | residual activity [7] 97% | residual activity [8] 93% | residual activity [9] 100% | residual activity [10] 100% | residual activity [11] 65% | residual activity [12] 100% | residual activity [13] 70% | residual activity [14] 89% | residual activity [15] 78% | residual activity [16] 88% | residual activity [17] 76% | residual activity [18] 100% | residual activity [19] 86% | residual activity [20] 100% | residual activity [21] 89% | residual activity [22] 100% | residual activity [23] 100% | residual activity [24] 98% | residual activity [25] 72% | residual activity [26] 100% | residual activity [27] 75% | residual activity [28] 96% | residual activity [29] 96% | residual activity [30] 71% | residual activity [31] 83% | inhibition [32] -1.68% | inhibition [33] 6.57%

O=C(NCc1ncc(C(F)(F)F)cc1Cl)c1ccc2c(c1)C1(CCS(=O)(=O)CC1)[C@H](C1CC1)N2S(=O)(=O)c1ccc(F)cc1 [BAY-784]
inactive: residual activity [1] 100% | residual activity [2] 100% | residual activity [3] 100% | residual activity [4] 92% | residual activity [5] 100% | residual activity [6] 100% | residual activity [7] 99% | residual activity [8] 100% | residual activity [9] 100% | residual activity [10] 100% | residual activity [11] 80% | residual activity [12] 100% | residual activity [13] 80% | residual activity [14] 100% | residual activity [15] 96% | residual activity [16] 66% | residual activity [17] 75% | residual activity [18] 100% | residual activity [19] 100% | residual activity [20] 100% | residual activity [21] 100% | residual activity [22] 100% | residual activity [23] 100% | residual activity [24] 86% | residual activity [25] 100% | residual activity [26] 96% | residual activity [27] 81% | residual activity [28] 77% | residual activity [29] 72% | residual activity [30] 60% | residual activity [31] 100% | inhibition [32] 1.44% | inhibition [33] -5.62%
